These results are taken from paper PMC6272854, “Two New Bioactive α-Pyrones from Hypericum japonicum” (Molecules, 2016).

Structures are written as SMILES. Some results are limits rather than exact numbers.

The test system of data set [1] is Kaposi's sarcoma associated herpesvirus (KSHV) lytic replication. Put plainly: in vitro. It is filed as cell-based. The following applies: human; CC50 (iSLK.219 cells) / IC50 (KSHV lytic replication); read-out: Selective Index (CC50/IC50). The text has this: (§1) Human gamma herpes viruses such as Kaposi’s sarcoma-associated herpes virus (KSHV) is a type of pathogenic virus related to Kaposi’s sarcoma, like epidemic KS, posttransplant KS, multicentric Castleman’s disease, and primary effusion lymphoma. Anti-infection towards lytic replication of KSHV plays a pivotal role as decreased a risk of KS, which were evidenced in cases of AIDS-associated epidemic KS patients. In our exhaustive study to explore bioactivities of metabolites, an inhibition assay on lytic replication of KSHV was investigated for compounds 1 and 2 referring to the previous experiments. […] The details of the dose-dependent manner were shown in Figure S1, Supplementary Materials. More elaborate procedures of anti-KSHV assay were also stated in Supplementary Materials.
(§2) Figure 5 The effects of positive control cidofovir (CDV), 1 and 2 on human iSLK.219 cells viabilities and on lytic replication of KSHV infecting Vero cells were measured in vitro.
(§3) Human iSLK.219 cells were used to determine the antiviral activity of desired compounds against KSHV. The cells harbor the rKSHV.219 virus that encodes green fluorescent protein (GFP) under control of the elongation factor 1α promoter (EF-1α) and lytic replication of KSHV was reactivated with 1 µg/mL doxycycline (Dox) (Beyotime) and 1.2 mM sodium butyrate (NaB) (Sigama). Cells grown to 70% confluence 96-well tissue culture plates were treated with indicated concentrations of compounds in present of Dox and NaB. Then cell viability was assessed at 48 h post drugs-induction by AlamarBlue® Cell Viability Assay (Invitrogen) according to the manufacturer’s protocol. The luminescent signal was measured using the Envison 2102 Multilabel Reader (Perkin Elmer, Waltham, MA, USA). The 50% cytotoxic concentration (CC50) for each compound was calculated from these dose-response curves using Graphpad5.0 Prism. The results were presented as mean values with standard deviations (n = 3) […]
(§4) The antiviral effects of compounds on KSHV were determined by infectivity assay as previously described. The supernatants from iSLK.219-treated or untreated with the compounds in the presence of Dox and NaB were collected at 48 h. Then, the supernatants were used to infect the Vero cells seeded in a 96-well plate as previously reported using centrifugation at 1500× g for 60 min [4]. The supernatants were then removed and replaced with flash DMEM medium. At 48 h, the expression of GFP per well in Vero cells was detected and analyzed using the Operetta High-Content Screening System (HCS) (Perkin Elmer). Nine image fields per well were recorded by the automated microscope based HCS and the GFP intensity per well was calculated using the Harmony 3.5 software (Perkin Elmer). Data were normalized as the fold change compared to the DMSO control. The IC50 (50% effective concentration) values correspond to compound concentrations required to reduce quantitative expression of the intensity of GFP by 50%. The results are presented as the mean values with […]
(§5) Figure S1. HRESIMS spectrum of japopyrone A (1).

Data set [2] deals with Kaposi’s sarcoma associated herpesvirus (KSHV). Put plainly: microbe, parasite or virus in culture. The conditions noted are these: Human gammaherpesvirus 8, Vero, 48 h. It is filed as cell-based.
Source text: as §1, §2, §3, §4, §5

Data set [3] in a line: Cell viability of iSLK.219 cells (AlamarBlue Cell Viability Assay). It is filed as cell-based. The conditions noted are these: iSLK.219 cells harbouring rKSHV.219 virus, human iSLK.219 cells, in presence of Dox and NaB. How it is done:
as §2, §3
as §4, with “control.” for “control. The IC50 (50% effective concentration) values correspond to compound concentrations required to reduce quantitative expression of the intensity of GFP by 50%. The results are presented as the mean values with”

Data set [4] can be described thus: Cytotoxicity assay against human cancer cell line HL-60. It is filed as cell-based. The following applies: HL-60 cells. The source says: (§6) Natural products have provided a rich resource for the discovery of new drugs, innovative therapeutic agents, and lead structures. In our studious research towards the discovery for new lead compounds and useful bioactivities from Chinese traditional herbs, several bioactivity screenings such as cytotoxicity assays against five human cancer cell lines (HL-60, SMMC-7721, A-549, MCF-7, and SW480), inhibitory activities on NO production, and inhibitory activities on β-site amyloid precursor protein cleaving enzyme 1 (BACE1), were carried out for compounds 1 and 2.

Data set [5] can be described thus: Cytotoxicity assay against human cancer cell line SMMC-7721. The class given is cell-based. The conditions noted are these: SMMC-7721 cells.
Source text: as §6

Data set [6] is described as follows: Cytotoxicity assay against human cancer cell line A-549. It is filed as cell-based. The conditions noted are these: A-549 cells.
Source text: as §6

Data set [7] in a line: Cytotoxicity assay against human cancer cell line MCF-7. The following applies: MCF-7 cells. It is filed as cell-based.
Source text: as §6

Data set [8] is described as follows: Cytotoxicity assay against human cancer cell line SW480. The class given is cell-based. The conditions noted are these: SW480 cells.
Source text: as §6

Another data set relates to NO production. Put plainly: NO production inhibition assay. The class given is cell-based.
Source text: as §6

In data set [9] the target is β-site amyloid precursor protein cleaving enzyme 1 (BACE1) (Homo sapiens, UniProt P56817). Put plainly: BACE1 inhibition assay. It is filed as biochemical.
Source text: as §6

β-site amyloid precursor protein cleaving enzyme 1 (BACE1), sequence (P56817 22-501 limits assumed, species assumed): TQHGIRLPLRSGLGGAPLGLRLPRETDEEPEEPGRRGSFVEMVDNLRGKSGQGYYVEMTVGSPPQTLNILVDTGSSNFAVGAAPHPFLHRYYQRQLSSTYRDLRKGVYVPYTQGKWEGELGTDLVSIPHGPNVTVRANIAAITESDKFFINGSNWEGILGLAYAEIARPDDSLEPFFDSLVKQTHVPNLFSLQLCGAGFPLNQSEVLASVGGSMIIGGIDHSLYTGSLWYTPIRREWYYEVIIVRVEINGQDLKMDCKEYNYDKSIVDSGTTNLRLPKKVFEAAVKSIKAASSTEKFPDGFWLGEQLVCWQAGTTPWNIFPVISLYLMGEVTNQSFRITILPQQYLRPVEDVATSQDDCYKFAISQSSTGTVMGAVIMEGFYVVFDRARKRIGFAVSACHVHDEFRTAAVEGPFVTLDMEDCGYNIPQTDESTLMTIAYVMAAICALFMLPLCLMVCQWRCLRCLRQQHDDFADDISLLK

Broadly, the IC50 is the concentration that gives 50% inhibition. In general, CC50 refers to the concentration giving 50% cytotoxicity. As to `Nc1ccn(C[C@@H](CO)OCP(=O)(O)O)c(=O)n1` [CDV, cidofovir, reference compound], the selectivity ratio at 48 h in [1] is greater than 250. Further, the IC50 in data set [2] was less than 0.004 µM. Also, the CC50 at 48 h in [3] was greater than 1 µM.

`COc1ccc(-c2cc3c(c(=O)o2)C(C)(C)[C@H](C)O3)cc1OC` [Compound 2, japopyrone B]: the selectivity ratio at 48 h in data set [1] is greater than 6.79. The half-inhibitory concentration (IC50) was 29.5 µM in data set [2]; greater than 40 µM in [4]; greater than 40 µM in data set [5]; greater than 40 µM in data set [6]; greater than 40 µM in data set [7]; greater than 40 µM in data set [8]. Besides, the figures for the IC50 (in the data set on NO production; in data set [9]) were greater than 25 µM and greater than 40 µM, respectively. Further, in data set [3], the CC50 at 48 h is greater than 200 µM.

With `COc1cc(-c2cc3c(c(=O)o2)C(C)(C)[C@H](C)O3)ccc1O` [Compound 1, japopyrone A], in data set [1], the selectivity ratio at 48 h is greater than 2.34. The concentration for half-maximal inhibition (IC50) in data set [2] was 85.3 µM; in data set [4] it was greater than 40 µM; in data set [5], greater than 40 µM; in [6], greater than 40 µM; in data set [7], greater than 40 µM; in data set [8], greater than 40 µM. Also, the concentration for half-maximal inhibition (IC50) was greater than 25 µM with NO production and greater than 40 µM in data set [9]. In addition, the cytotoxic concentration (CC50) at 48 h in data set [3] is greater than 200 µM.
